Laboratory results taken from patent US6518246B1, “Pharmaceutical composition and method for the treatment of neoplastic cells” (priority 2001, dated 2003).

How the values were obtained:
[1] = test system: N-methyl-N′-nitroguanidine-induced rat colonic adenocarcinoma; experiment: Tumour volume and wet weight, Example 1; assay type: in vivo, nude mice (C57BL/6JBom-nu); settings: single substance 10 μg/kg body weight every 12 hours for five days, vs controls; for tumour volume: P=0.4; for tumour weight: P=0.8
Method: (§1) Female nude mice (C57BL/6JBom-nu, Bomholtgård Breeding and Research Centre, Denmark), 8 weeks old, with a mean body weight of 22.9 g (range 20.4-25.5), were used in this investigation. The mice were kept one to each cage in a laminar filtered airflow cabinet under pathogen-free conditions. The animals were kept under a constant temperature (22±2° C.) and relative humidity (55±5%), with 12 h dark/light cycles. They were fed on a standard pellet diet (R 34, Lactamin, Vadstena, Stockholm) and given water ad libitum. All experiments were performed by aseptic techniques under laminar airflow.
Twenty mice were injected s.c. with 100 μl cell suspension containing 2×10^6 viable cells of an N-methyl-N′-nitroguanidine-induced rat colonic adenocarcinoma (provided kindly by Professor L.-O. Hafström, Departnent of Surgery, University Hospital, Umeå, Sweden). After seven days, the greatest and least diameters of the tumours were measured and the volume was calculated with the use of the following formula:
volume=(mean diameter)^333 π/6.
(§2) The animals were divided into two groups of 10 mice each. The first group received s.c. injections of 100 μl saline solution containing a mixture of octreotide (Sandostatin®, Novartis), galanin (synthetic human galanin, Sigma, Stockholm), and serotonin (5-hydroxytryptamine, oxalate salt, Sigma) at 10 μg/kg body weight each. Injections were administered every 12 hours for five days. The second group served as controls and received only saline solution. Thirty-two mice were implanted with the tumour as described above and left for seven days. After measuring the tumour diameter, the animals were divided into four groups of eight. The first group was injected with 100 μl saline solution, the second with 100 μl saline solution containing 10 μg/kg body weight octreotide, the third group with 100 μl saline solution containing 10 μg/kg body weight galanin, and the last group was injected with 100 μl saline solution containing 10 μg/kg bodyweight serotonin. Injections were administered every 12 hours for five days.
(§3) At the end of the experiments, the animals were weighed and then decapitated. The tumours were dissected carefully and their diameters and weight were determined. Three tissue samples cut perpendicular to the surface were taken from each tumour, two from the periphery and one from the middle. The tissue samples were fixed overnight in 4% buffered paraformaldehyde, embedded in paraffin wax, and cut at 5 μm.

[2] = test system: N-methyl-N′-nitroguanidine-induced rat colonic adenocarcinoma; experiment: Apoptosis by in situ hybridisation, apoptotic index, Example 1; assay type: in vivo, nude mice (C57BL/6JBom-nu); settings: single substance 10 μg/kg, five days; for Apoptotic index, second in situ hybridisation kit (mean±SD): controls 3.5±0.6, P=0.15; for Apoptotic index, first in situ hybridisation kit: vs controls, P=0.2
Method: as §2, §3
Apoptosis was detected by in situ hybridisation using two different kits (TA200 and TA5411) from R&D Systems Inc (Minneapolis, Minn. USA). Both kits detect DNA fragmentation, but with two different detection approaches. In the first kit, fragments of DNA were detected by incorporating modified nucleotides at the 3′OH ends of the fragments, using terminal deoxynucleotidyl transferase (TdT). The incorporated 5-bromodeoxyuridine (BrdU) was detected by a biotinylated anti-BrdU antibody. A streptavidin-conjugated horsradish peroxidase specifically bound to the biotinylated antibody. In the second kit, TdT added biotinylated nucleotides to the 3′OH ends of the DNA fragments. Again, a streptavidin-conjugated horseradish peroxidase specifically bound to the biotinylated DNA fragments. The peroxidase in both kits was detected by diaminobenzidine tetrahydrochloride (DAB). The sections were counter-stained with methyl green. […]
Apoptotic index was determined using the unbiased counting frames (as described in detail previously), adapted to computer image analysis (Palmqvist et al., 1998). […] About 40 fields from each tumour, spread randomly in sections from the three tissue samples, were measured. For each tumour about 200 positive and 200 negative nuclei were counted. The labelling index (LI) was calculated as follows: […]

[3] = test system: N-methyl-N′-nitroguanidine-induced rat colonic adenocarcinoma; experiment: Proliferation (PCNA immunostaining), proliferation index, Example 1; assay type: in vivo, nude mice (C57BL/6JBom-nu); settings: single substance 10 μg/kg, five days; vs controls, P=0.8
Method: (§4) The animals were divided into two groups of 10 mice each. The first group received s.c. injections of 100 μl saline solution containing a mixture of octreotide (Sandostatin®, Novartis), galanin (synthetic human galanin, Sigma, Stockholm), and serotonin (5-hydroxytryptamine, oxalate salt, Sigma) at 10 μg/kg body weight each. Injections were administered every 12 hours for five days. The second group served as controls and received only saline solution. Thirty-two mice were implanted with the tumour as described above and left for seven days. After measuring the tumour diameter, the animals were divided into four groups of eight. […]
At the end of the experiments, the animals were weighed and then decapitated. The tumours were dissected carefully and their diameters and weight were determined. […]
To detect proliferation, the sections from the tumour tissue samples from all the animals were immnmostained with the avidin-biotin-complex (ABC) method (Dakopatts, Glostrup, Denmark), as described in detail earlier (E1-Salhy et al., 1993). […] Peroxidase was detected by immersing the sections in 50 ml Tris-buffer containing 25 mg diaminobenzidine tetrahydrochloride (DAB) and 10 μl of 30% H2O2 followed by slight counter-staining in Mayer's haematoxylin. […] The proliferating index was determined as described for apoptosis.

[4] = test system: asymptomatic advanced colon carcinoma; settings: about 7 μ/kg/d; patients; cited from earlier work
[5] = test system: rat colonic cancer cells; settings: in vivo; cited from earlier work
[6] = Deaths of animals during treatment, Example 1; assay type: in vivo, nude mice (C57BL/6JBom-nu); settings: single substance 10 μg/kg every 12 hours; dissection: metastasis / abdominal carcinosis
Method: as §1, §4

Molecule | tumour volume [1] | tumour weight [1] | Apoptotic index, second in situ hybridisation kit (mean±SD) [2] | Apoptotic index, first in situ hybridisation kit [2] | tumour proliferation index [3] | progression of the disease [4] | mitotic rate of rat colonic cancer cells [5] | deaths during the experiment [6]
octreotide | no significant difference | no significant difference | 3±1.1 | no difference | Neither was there any difference | no effect |  | 
NCCc1c[nH]c2ccc(O)cc12 [serotonin, 5-hydroxytryptamine] | no significant difference | no significant difference | 4±0.5 | no difference | Neither was there any difference |  | increase | 
CC(C)C[C@H](NC(=O)CNC(=O)[C@H](CC(N)=O)NC(=O)[C@H](CCCCN)NC(=O)[C@H](CC(=O)O)NC(=O)[C@H](CO)NC(=O)[C@H](Cc1ccccc1)NC(=O)[C@H](CO)NC(=O)[C@H](CCCNC(=N)N)NC(=O)[C@H](Cc1cnc[nH]1)NC(=O)[C@H](CC(N)=O)NC(=O)CNC(=O)[C@@H](NC(=O)[C@H](C)NC(=O)[C@H](Cc1cnc[nH]1)NC(=O)[C@@H]1CCCN1C(=O)CNC(=O)[C@H](CC(C)C)NC(=O)[C@H](CC(C)C)NC(=O)[C@H](Cc1ccc(O)cc1)NC(=O)CNC(=O)[C@H](C)NC(=O)[C@H](CO)NC(=O)[C@H](CC(N)=O)NC(=O)[C@H](CC(C)C)NC(=O)[C@@H](NC(=O)[C@H](Cc1c[nH]c2ccccc12)NC(=O)CN)[C@@H](C)O)C(C)C)C(=O)N[C@H](C(=O)N[C@@H](CO)C(=O)O)[C@@H](C)O [galanin] |  |  |  |  |  |  |  | Two mice in the group treated with galanin died
